Source: patent publication US6255273A, “Hydrofluoropolyether-based azeotropic or near azeotropic compositions” (Ausimont S.p.A., priority 1998, dated 2001)
Blank lines part the entries; values can stand above or below the molecule they belong to.

What was measured:
[1] = Kauri-butanol index, modified ASTM D1133-86; assay type: physicochemical
Experimental: The solvent effect of the HFPE-based mixtures is evaluated by determination of the Kauri-butanol index, reported in Table 19, according to ASTM […]-86 method. […] The Kauri-butanol solution is stirred by a magnetic stirrer. The end titration point is identified in connection with a diffused turbidity which appears in the Kauri-butanol solution due to the resin separation.

[2] = oily product removal from molded circuits, oil (3); details: 23° C.; methyl alcohol mixture 51° C., tDCE mixture 25° C., acetone mixture 66° C.; 5 min dipping
Experimental: (§1) The oily product removal capacity from molded circuits has been verified according to the following method: a known amount of an oily product is uniformly spread on the molded circuit surface having 35×19 mm sizes; 0.100 g of oil are spread on a single surface of the circuit, then the article is dipped in the solution to be tested.
(§2) After 5 minutes of dipping, the circuit is allowed to drie for further 5 minutes at room temperature so as to remove the solvent traces and then it is weighed again on an analytical balance.
(§3) The following oily products have been used:
3) Ester-Icematic SW 100 oil by CASTROL
(§4) Tests are carried out at room temperature (23-250° C.) and tests at the boiling temperature of the solvent mixtures. In the latter case the solvent is placed in a vessel equipped with a refrigerant under reflux which recovers the vapour of the boiling solution.
(§5) In all the tests 30 ml of solvent solution have been used.

[3] = Hydrofluoropolyether chemical-physical characteristics (Table 1); assay type: physicochemical; details: for BOILING TEMPERATURE / Evaporation latent heat: at 1.013 bar; for Isotherm evaporation speed / Surface pressure: at 20° C.; for Liquid density: at 25° C.; for Flammability in air: in air (% volume)
[4] = oily product removal from molded circuits, oil (2); details: 23° C.; methyl alcohol mixture 51° C., tDCE mixture 25° C., acetone mixture 66° C.; 5 min dipping
Experimental: as §1, §2, §3, §4, §5

[5] = oily product removal from molded circuits, oil (4); details: 23° C.; methyl alcohol mixture 51° C., tDCE mixture 25° C., acetone mixture 66° C.; 5 min dipping
Experimental: as §1, §2, §3
4) Mineral-Clavus 32 oil by SHELL.
as §4, §5

[6] = water removal from glass surfaces; details: with 600 ppm by weight surfactant; CFC 113 42° C., HCFC123 mixture 23° C., tDCE mixture 35° C.
Experimental: In a cylindrical container having a 46 cm diameter and a 56 cm height, equipped with a neoprene closing stopper (cover), 30 ml of the solution to be tested are introduced.
The compositions, indicated in Table 22, used for the water removal tests are prepared in a 50 ml flask and are heated in a thermostatic bath at a temperature of about 5° C. lower than the boiling temperature of the solution itself.
After heating the solution is transferred in the test container equipped with cover.
On a glass surface having 37×25×1 mm sizes, 0.015 g of water are deposited in the form of small drops.
The glass is placed on a metal frame which is used to carry out the article dipping in the liquid phase of the solution to be tested.
The container for the test is opened and the frame is slowly dipped into the solution; the frame upper part runs in a hole made in the rubber cover (cap) which closes the container.
When two minutes have elapsed, the frame is lifted from the liquid phase, by letting run the external end part through the hole present in the cover (cap); the glass will remain exposed to the solution vapours for one minute, then it is removed from the container and weighed.

[7] = system: rats; experiment: Acute toxicity in rats by inhalation; assay type: in vivo; details: 4 hours
[8] = background; cited from earlier work
[9] = oily product removal from molded circuits, oil (1); details: 23° C.; methyl alcohol mixture 51° C., tDCE mixture 25° C., acetone mixture 66° C.; 5 min dipping
Experimental: as §1, §2, §3
1) Alkyl Benzene-Zerice S 46 oil by ESSO
as §4, §5

[10] = evaluation of the boiling temperature at the pressure of 1.013 bar (binary mixtures); assay type: physicochemical
[11] = system: rats; experiment: Acute toxicity in rats per os; assay type: in vivo; design: unit not given here
[12] = Table 2, HCF2 OCF2 OCF2 H/HCFC 123, number in label = % by wt. HCF2 OCF2 OCF2 H
[13] = Table 7, HCF2 OCF2 OCF2 H/HFC 356 ffa, number in label = % by wt. HCF2 OCF2 OCF2 H
[14] = Table 6, HCF2 OCF2 OCF2 H/HFC 365 mfc, number in label = % by wt. HCF2 OCF2 OCF2 H
[15] = Table 5, HCF2 OCF2 OCF2 H/acetone, number in label = % by wt. HCF2 OCF2 OCF2 H
[16] = Table 8, HCF2 OCF2 OCF2 H/metoxymethyl methyl ether, number in label = % by wt. HCF2 OCF2 OCF2 H
[17] = Table 10, HCF2 OCF2 OCF2 H/tDCE, number in label = % by wt. HCF2 OCF2 OCF2 H
[18] = Table 12, HCF2 OCF2 CF2 OCF2 H/acetone, number in label = % by wt. HCF2 OCF2 CF2 OCF2 H
[19] = Table 13, HCF2 OCF2 CF2 OCF2 H/methyl alcohol, number in label = % by wt. HCF2 OCF2 CF2 OCF2 H
[20] = Table 15, HCF2 OCF2 CF2 OCF2 H/tDCE, number in label = % by wt. HCF2 OCF2 CF2 OCF2 H
[21] = Table 16, HCF2 OCF2 CF2 OCF2 H/ethyl alcohol, number in label = % by wt. HCF2 OCF2 CF2 OCF2 H

SMILES: FC(F)(Cl)C(F)(Cl)Cl [CFC 113, 1,1,2-trichloro-1,2,2-trifluoroethane]
Kauri-butanol index [1]: 31 | Percentage of removed oil, oil (3) Ester-Icematic SW 100 [2]: 100 % by weight | BOILING TEMPERATURE [3]: 47.55 °C | Evaporation latent heat [3]: 144 kJ/kg | Isotherm evaporation speed [3]: 1 mg/min | Surface pressure [3]: 18.1 dynes/cm | Liquid density [3]: 1.56 g/mL | Flammability in air [3]: non | Percentage of removed oil, oil (2) FluoroSilicone-FS 1265 [4]: 99.5 % by weight | Percentage of removed oil, oil (4) Mineral-Clavus 32 [5]: 100 % by weight | removed water [6]: 100 % by weight | Acute toxicity in rats by inhalation, LC50 [7]: 50000 ppmv/4 hours | flammability [8]: non flammable | stability [8]: stable | toxicity [8]: non toxic | Percentage of removed oil, oil (1) Alkyl Benzene-Zerice S 46 [9]: 100 % by weight

SMILES: FC(F)(F)C(Cl)Cl [HCFC 123, 1,1-dichloro-2,2,2-trifluoroethane, reference compound]
BOILING TEMPERATURE [10, 12]: 27.54 °C

SMILES: CC(F)(Cl)Cl [HCFC 141b]
flammability [8]: moderately flammable

SMILES: FC(F)(F)CCC(F)(F)F [HFC 356 ffa, 1,1,1,4,4,4-hexafluorobutane, reference compound]
BOILING TEMPERATURE [10, 13]: 24.71 °C

SMILES: CC(F)(F)CC(F)(F)F [HFC 365 mfc, 1,1,1,3,3-pentafluorobutane, reference compound]
BOILING TEMPERATURE [10, 14]: 40.09 °C

SMILES: FC(F)OC(F)(F)OC(F)F [HFPE1, difluoromethoxy-bis(difluoromethyl ether)]
Acute toxicity in rats per os, LD50 [11]: > 5000 | BOILING TEMPERATURE [3]: 35.39 °C | Evaporation latent heat [3]: 165 kJ/kg | Isotherm evaporation speed [3]: 1.5 mg/min | Surface pressure [3]: 14.0 dynes/cm | Liquid density [3]: 1.54 g/mL | Flammability in air [3]: non flammable | BOILING TEMPERATURE [10, 12]: 35.39 °C | BOILING TEMPERATURE ([10]; Table 3, HCF2 OCF2 OCF2 H/n-pentane, number in label = % by weight HCF2 OCF2 OCF2 H): 35.39 °C | BOILING TEMPERATURE ([10]; Table 4, HCF2 OCF2 OCF2 H/iso-pentane, number in label = % by wt. HCF2 OCF2 OCF2 H): 35.39 °C | BOILING TEMPERATURE [10, 15]: 35.39 °C | BOILING TEMPERATURE [10, 14]: 35.39 °C | BOILING TEMPERATURE [10, 13]: 35.39 °C | BOILING TEMPERATURE [10, 16]: 35.39 °C | BOILING TEMPERATURE ([10]; Table 9, HCF2 OCF2 OCF2 H/n-hexane, number in label = % by wt. HCF2 OCF2 OCF2 H): 35.39 °C | BOILING TEMPERATURE [10, 17]: 35.39 °C | Acute toxicity in rats by inhalation, LC50 [7]: > 32000 ppmv/4 hours

SMILES: FC(F)OC(F)(F)C(F)(F)OC(F)F [HFPE2, 1-difluoromethoxy-1,1,2,2-tetrafluoroethyl difluoromethyl ether]
Acute toxicity in rats per os, LD50 [11]: > 5000 | BOILING TEMPERATURE [3]: 58.21 °C | Evaporation latent heat [3]: 139 kJ/kg | Isotherm evaporation speed [3]: 0.6 mg/min | Surface pressure [3]: 15.5 dynes/cm | Liquid density [3]: 1.60 g/mL | Flammability in air [3]: non flammable | BOILING TEMPERATURE ([10]; Table 11, HCF2 OCF2 CF2 OCF2 H/n-pentane, number in label = % by wt. HCF2 OCF2 CF2 OCF2 H): 58.21 °C | BOILING TEMPERATURE [10, 18]: 58.21 °C | BOILING TEMPERATURE [10, 19]: 58.21 °C | BOILING TEMPERATURE ([10]; Table 14, HCF2 OCF2 CF2 OCF2 H/n-hexane, number in label = % by wt. HCF2 OCF2 CF2 OCF2 H): 58.21 °C | BOILING TEMPERATURE [10, 20]: 58.21 °C | BOILING TEMPERATURE [10, 21]: 58.21 °C | Acute toxicity in rats by inhalation, LC50 [7]: > 32000 ppmv/4 hours

SMILES: CC(C)=O [acetone, dimethyl ketone, reference compound]
BOILING TEMPERATURE [10, 15]: 56.50 °C | BOILING TEMPERATURE [10, 18]: 56.50 °C

BOILING TEMPERATURE [10, 21]: 78.50 °C
SMILES: CCO [ethyl alcohol, reference compound]

SMILES: CO [methyl alcohol, reference compound]
BOILING TEMPERATURE [10, 19]: 65.00 °C

SMILES: COCOC [metoxymethyl methyl ether, methoxymethyl methyl ether, reference compound]
BOILING TEMPERATURE [10, 16]: 41.96 °C

SMILES: Cl/C=C/Cl [tDCE, trans 1,2-dichloroethylene, reference compound]
BOILING TEMPERATURE [10, 17]: 46.70 °C | BOILING TEMPERATURE [10, 20]: 46.79 °C
